In PMC11046985 (Neuro-Oncology Advances, 2024):
Read-outs that look alike come from different tables or passages of the source.

Legend:
[1] = Afatinib plasma concentration, HPLC-MS/MS, phase I pulsatile afatinib; assay type: in vivo, human
Procedure: Pharmacokinetic (PK) data were obtained to guide optimal dose of afatinib. The time of maximum plasma concentration is reported between 2 and 5 hours after dosing.[18],[19]

[2] = read-out: Maximum concentration (Cmax) of afatinib in plasma; single dose of 40 mg, patients with solid tumors; cited from earlier work

In the case of `CN(C)C/C=C/C(=O)Nc1cc2c(Nc3ccc(F)c(Cl)c3)ncnc2cc1O[C@H]1CCOC1` [Afatinib], the “Highest afatinib level in blood, one patient” value ([1]; 120 mg every 4 days cohort) is reported as “approximately 0.8 μM”, the Cmax ([1]; human, plasma, 3 hours (± 2 hours) post dosing, oral, all cohorts) is reported as less than 392 ng/mL and the “Pre-dose (trough) afatinib levels in blood” value ([1]; pulse dosing, all cohorts) is reported as “under 50 nM”. For the same compound, the “Afatinib concentration in blood” value ([1]; subject 002, Cohort 1: 80 mg q4d, post dosing, C1D8) was 12.323 ng/mL, the “Afatinib concentration in blood” value ([1]; subject 002, Cohort 1: 80 mg q4d, pre dosing, C1D8) was 8.751 ng/mL and the “Afatinib concentration in blood” value ([1]; subject 002, Cohort 1: 80 mg q4d, pre dosing, C2D1) was 11.693 ng/mL. For the same compound, the “Afatinib concentration in blood” value ([1]; subject 002, Cohort 1: 80 mg q4d, pre dosing, EOT (EoC2)) was “<LLOQ (EoC2)”, the “Afatinib concentration in blood” value ([1]; subject 003, Cohort 1: 80 mg q4d, post dosing, C1D22) was 30.096 ng/mL and the “Afatinib concentration in blood” value ([1]; subject 003, Cohort 1: 80 mg q4d, pre dosing, C1D22) was 17.318 ng/mL. For the same compound, the “Afatinib concentration in blood” value ([1]; subject 004, Cohort 1: 80 mg q4d, pre dosing, C2D1) was “<LLOQ”, the “Afatinib concentration in blood” value ([1]; subject 005, Cohort 2: 120 mg q4d, post dosing, C1D15) was 37.68 ng/mL and the “Afatinib concentration in blood” value ([1]; subject 005, Cohort 2: 120 mg q4d, pre dosing, C2D1) was 7.18 ng/mL. For the same compound, the “Afatinib concentration in blood” value ([1]; subject 006, Cohort 2: 120 mg q4d, post dosing, C1D15) was 66.156 ng/mL, the “Afatinib concentration in blood” value ([1]; subject 006, Cohort 2: 120 mg q4d, pre dosing, C1D15) was “<LLOQ” and the “Afatinib concentration in blood” value ([1]; subject 006, Cohort 2: 120 mg q4d, pre dosing, C2D1) was 10.104 ng/mL. For the same compound, the “Afatinib concentration in blood” value ([1]; subject 006, Cohort 2: 120 mg q4d, pre dosing, C3D1) was “<LLOQ”, the “Afatinib concentration in blood” value ([1]; subject 006, Cohort 2: 120 mg q4d, pre dosing, C4D1) was 11.223 ng/mL and the “Afatinib concentration in blood” value ([1]; subject 008, Cohort 2: 120 mg q4d, post dosing, C1D8) was 392.01 ng/mL. The “Afatinib concentration in blood” value ([1]; subject 008, Cohort 2: 120 mg q4d, pre dosing, C1D8) was 22.243 ng/mL, the “Afatinib concentration in blood” value ([1]; subject 010, Cohort 3: 180 mg q4d, post dosing, C1D22) was 324.265 ng/mL and the “Afatinib concentration in blood” value ([1]; subject 010, Cohort 3: 180 mg q4d, pre dosing, C1D22) was 43.226 ng/mL. For the same compound, the “Afatinib concentration in blood” value ([1]; subject 011, Cohort 3: 180 mg q4d, post dosing, C1D8) was 11.705 ng/mL, the “Afatinib concentration in blood” value ([1]; subject 011, Cohort 3: 180 mg q4d, pre dosing, C1D8) was 11.616 ng/mL and the “Afatinib concentration in blood” value ([1]; subject 011, Cohort 3: 180 mg q4d, pre dosing, C3D1) was 19.265 ng/mL. For the same compound, the “Afatinib concentration in blood” value ([1]; subject 012, Cohort 3: 180 mg q4d, post dosing, C1D15) was 96.354 ng/mL, the “Afatinib concentration in blood” value ([1]; subject 012, Cohort 3: 180 mg q4d, post dosing, C2D1) was 85.834 ng/mL and the “Afatinib concentration in blood” value ([1]; subject 012, Cohort 3: 180 mg q4d, pre dosing, C1D15) was “<LLOQ”. The “Afatinib concentration in blood” value ([1]; subject 012, Cohort 3: 180 mg q4d, pre dosing, C2D1) was “<LLOQ”, the “Afatinib concentration in blood” value ([1]; subject 012, Cohort 3: 180 mg q4d, pre dosing, EOT (EoC4)) was 6.402 (EoC4) ng/mL and the “Afatinib concentration in blood” value ([1]; subject 013, Cohort 3: 180 mg q4d, pre dosing, C1D15) was 10.374 ng/mL. The “Afatinib concentration in blood” value ([1]; subject 013, Cohort 3: 180 mg q4d, pre dosing, C2D1) was 41.964 ng/mL, the “Afatinib concentration in blood” value ([1]; subject 013, Cohort 3: 180 mg q4d, pre dosing, C4D1) was 6.787 ng/mL and the “Afatinib concentration in blood” value ([1]; subject 014, Expansion Cohort 3: 180 mg q4d, post dosing, C1D8) was 60.605 ng/mL. For the same compound, the “Afatinib concentration in blood” value ([1]; subject 014, Expansion Cohort 3: 180 mg q4d, pre dosing, C1D8) was 11.442 ng/mL, the “Afatinib concentration in blood” value ([1]; subject 015, Cohort 4: 280 mg q7d, post dosing, C1D15) was 40.694 ng/mL and the “Afatinib concentration in blood” value ([1]; subject 015, Cohort 4: 280 mg q7d, pre dosing, EOT (EoC1)) was “<LLOQ (EoC1)”. The “Afatinib concentration in blood” value ([1]; subject 016, Cohort 4: 280 mg q7d, post dosing, C1D15) was 205.634 ng/mL, the “Afatinib concentration in blood” value ([1]; subject 017, Expansion Cohort 3: 180 mg q4d, post dosing, C1D15) was 89.884 ng/mL and the “Afatinib concentration in blood” value ([1]; subject 017, Expansion Cohort 3: 180 mg q4d, pre dosing, C1D15) was 10.425 ng/mL. The “Afatinib concentration in blood” value ([1]; subject 017, Expansion Cohort 3: 180 mg q4d, pre dosing, C2D1) was 5.708 ng/mL, the “Afatinib concentration in blood” value ([1]; subject 017, Expansion Cohort 3: 180 mg q4d, pre dosing, C3D1) was “<LLOQ” and the “Afatinib concentration in blood” value ([1]; subject 017, Expansion Cohort 3: 180 mg q4d, pre dosing, C4D1) was 6.264 ng/mL. For the same compound, the “Afatinib concentration in blood” value ([1]; subject 018, Cohort 4: 280 mg q7d, post dosing, C1D15) was 322.557 ng/mL, the “Afatinib concentration in blood” value ([1]; subject 018, Cohort 4: 280 mg q7d, post dosing, C2D1) was 340.709 ng/mL and the “Afatinib concentration in blood” value ([1]; subject 018, Cohort 4: 280 mg q7d, pre dosing, C1D15) was 9.603 ng/mL. For the same compound, the “Afatinib concentration in blood” value ([1]; subject 018, Cohort 4: 280 mg q7d, pre dosing, C2D1) was 22.084 ng/mL, the “Afatinib concentration in blood” value ([1]; subject 018, Cohort 4: 280 mg q7d, pre dosing, C3D1) was 14.169 ng/mL and the “Afatinib concentration in blood” value ([1]; subject 018, Cohort 4: 280 mg q7d, pre dosing, C4D1) was 11.731 ng/mL. The “Afatinib concentration in blood” value ([1]; subject 018, Cohort 4: 280 mg q7d, pre dosing, EOT (EoC4)) was 10.379 (EoC4) ng/mL, the “Afatinib concentration in blood” value ([1]; subject 019, Expansion Cohort 4: 280 mg q7d, post dosing, C1D8) was 153.973 ng/mL and the “Afatinib concentration in blood” value ([1]; subject 019, Expansion Cohort 4: 280 mg q7d, pre dosing, C1D8) was 9.857 ng/mL. For the same compound, the “Afatinib concentration in blood” value ([1]; subject 019, Expansion Cohort 4: 280 mg q7d, pre dosing, C2D1) was 11.805 ng/mL, the “Afatinib concentration in blood” value ([1]; subject 019, Expansion Cohort 4: 280 mg q7d, pre dosing, EOT (EoC2)) was “<LLOQ (EoC2)” and the “Afatinib concentration in blood” value ([1]; subject 020, Expansion Cohort 4: 280 mg q7d, post dosing, C1D15) was 110.625 ng/mL. For the same compound, the “Afatinib concentration in blood” value ([1]; subject 020, Expansion Cohort 4: 280 mg q7d, pre dosing, C1D15) was 8.586 ng/mL, the “Afatinib concentration in blood” value ([1]; subject 020, Expansion Cohort 4: 280 mg q7d, pre dosing, C2D1) was 11.278 ng/mL and the “Afatinib concentration in blood” value ([1]; subject 021, Expansion Cohort 4: 280 mg q7d, post dosing, C1D15) was 40.352 ng/mL. The “Afatinib concentration in blood” value ([1]; subject 021, Expansion Cohort 4: 280 mg q7d, pre dosing, C1D15) was 5.966 ng/mL, the “Afatinib concentration in blood” value ([1]; subject 021, Expansion Cohort 4: 280 mg q7d, pre dosing, C2D1) was “<LLOQ” and the “Afatinib concentration in blood” value ([1]; subject 021, Expansion Cohort 4: 280 mg q7d, pre dosing, EOT (C2D15)) was “<LLOQ (C2D15)”. For the same compound, the Cmax [2] was roughly 10 nM.
